Our source for the IC50 values is patent US9845322B2 (Hoffmann-La Roche Inc., priority 2016, dated 2017).

One experiment relates to HBsAg secretion in HepG2.2.15 cells. Briefly: HBsAg assay (chemiluminescence immunoassay of secreted HBsAg in culture supernatant). The class given is cell-based, HBV. The conditions noted are these: HepG2.2.15 cells; concentration at which HBsAg secretion was reduced by 50% compared to the no drug control; read-out: IC50 (HBsAg assay). As to the method: HepG2.2.15 cells (Acs et al. Proc Natl Acad Sci USA, 84, (1987), 4641-4), a constitutively HBV-expressing cell line were cultured in DMEM+Glutamax-I medium (Invitrogen, Carlsbad, Calif., USA), supplemented with 10% fetal bovine serum (Invitrogen) and G418 (Invitrogen) at a final concentration of 200 mg/L and maintained in 5% CO2 at 37° C.
HepG2.2.15 cells were seeded in duplicate into white, 96-well plates at 1.5×10^4 cells/well. The cells were treated with a three-fold serial dilution series of the compounds in DMSO. The final DMSO concentration in all wells was 1% and DMSO was used as no drug control.
The HBsAg chemiluminescence immunoassay (CLIA) kit (Autobio Diagnostics Co., Zhengzhou, China, Catalog number: CL0310-2) was used to measure the levels of secreted HBV antigens semi-quantitatively. For the detection 50 μL/well culture supernatant was used and HBsAg was quantified using HBsAg chemiluminescence immunoassay (CLIA) kit (Autobio Diagnostics Co., Zhengzhou, China, Catalog number: CL0310-2), 50 μL of the supernatant was transferred to the CLIA assay plate and 50 μL of enzyme conjugate reagent was added into each well. The plates were sealed and gently agitated for 1 hour at room temperature. The supernatant-enzyme-mixture was discarded and wells were washed 6 times with 300 μL of PBS. The residual liquid was removed by plating the CLIA plate […] on absorbent tissue paper. 25 μL of substrates A and B were added to each well. Luminance was measured using a luminometer (Mithras LB 940 Multimode Microplate Reader) after 10 minutes incubation. Dose-response curves were generated and the IC50 value was extrapolated by using the E-WorkBook Suite (ID Business Solutions Ltd., Guildford, UK). The IC50 was defined as the compound concentration (or conditioned media log dilution) at which HBsAg secretion was reduced by 50% compared to the no drug control.
The compounds according to formula I were tested for their capacity to inhibit HBsAg as described herein.
Regarding `COc1cc(N2CCc3nc(-c4ccccn4)ncc3C2C)cc(F)c1F` (single isomer, unassigned; (-)) [Example 7, (−)-6-(3,4-difluoro-5-methoxy-phenyl)-5-methyl-2-(2-pyridyl)-7,8-dihydro-5H-pyrido[4,3-d]pyrimidine], the IC50 amounted to 12 nM.

Consider `CC1c2cnc(-c3ccccn3)nc2CCN1c1ccc([N+](=O)[O-])cc1` (single isomer, unassigned; (+)) [Example 2, (+)-5-methyl-6-(4-nitrophenyl)-2-(2-pyridyl)-7,8-dihydro-5H-pyrido[4,3-d]pyrimidine], for which the IC50 was found to be 2060 nM. With `CCCC1c2cnc(-c3ccccn3)nc2CCN1c1cc(F)c(F)c(OC)c1` (stereo not shown) [Example 12, 6-(3,4-difluoro-5-methoxy-phenyl)-5-propyl-2-(2-pyridyl)-7,8-dihydro-5H-pyrido[4,3-d]pyrimidine], the IC50 came out at 7490 nM. Take `COc1cc(F)cc(N2CCc3nc(-c4ncccn4)ncc3C2C)c1` (stereo not shown) [Example 72, 6-(3-fluoro-5-methoxy-phenyl)-5-methyl-2-pyrimidin-2-yl-7,8-dihydro-5H-pyrido[4,3-d]pyrimidine]: the half-inhibitory concentration (IC50) was determined as 22 nM.

Still in this experiment, the particulars now being: Hepatitis B virus, HepG2.2.15, HepG2.2.15 cells; concentration at which HBsAg secretion was reduced by 50% compared to the no drug control; read-out: IC50 (HBsAg assay).
For `CC1c2cnc(-c3ncccn3)nc2CCN1c1cc(F)cc(OCC(F)(F)F)c1` (stereo not shown) [Example 144, 6-[3-fluoro-5-(2,2,2-trifluoroethoxy)phenyl]-5-methyl-2-pyrimidin-2-yl-7,8-dihydro-5H-pyrido[4,3-d]pyrimidine], the IC50 was determined as 48 nM. In the case of `COc1cc(N2CCc3nc(-c4ccccn4)ncc3C2CCO)cc(F)c1F` (stereo not shown) [Example 38, 2-[6-(3,4-difluoro-5-methoxy-phenyl)-2-(2-pyridyl)-7,8-dihydro-5H-pyrido[4,3-d]pyrimidin-5-yl]ethanol], the IC50 turned out to be 3360 nM. Take `CC1c2cnc(-c3ccccn3)nc2CCN1c1cc(OCCCCCC(=O)O)cc(F)n1` (stereo not shown) [Example 170, 6-[[2-fluoro-6-[5-methyl-2-(2-pyridyl)-7,8-dihydro-5H-pyrido[4,3-d]pyrimidin-6-yl]-4-pyridyl]oxy]hexanoic acid]: the half-maximal inhibitory concentration (IC50) is 16 nM. For the compound `CC1c2cnc(-c3ncccn3)nc2CCN1c1cc(F)c(F)c(OCC2CCOC2)c1` (stereo not shown) [Example 75, 6-[3,4-difluoro-5-(tetrahydrofuran-3-ylmethoxy)phenyl]-5-methyl-2-pyrimidin-2-yl-7,8-dihydro-5H-pyrido[4,3-d]pyrimidine], the 50% inhibitory concentration (IC50) was 21 nM. With `COCCCNS(=O)(=O)c1cc(F)cc(N2CCc3nc(-c4ncccn4)ncc3C2C)c1` (stereo not shown) [Example 182, 3-fluoro-N-(3-methoxypropyl)-5-(5-methyl-2-pyrimidin-2-yl-7,8-dihydro-5H-pyrido[4,3-d]pyrimidin-6-yl)benzenesulfonamide], the IC50 was determined as 2240 nM. Turning to `CC1c2cnc(-c3ncccn3)nc2CCN1c1cc(F)cc(N2CCCC2)n1` (stereo not shown) [Example 199, 6-(4-fluoro-6-pyrrolidin-1-yl-2-pyridyl)-5-methyl-2-pyrimidin-2-yl-7,8-dihydro-5H-pyrido[4,3-d]pyrimidine], the IC50 turned out to be 18 nM.

For the compound `COc1cc(N2CCc3cc(-c4ncccn4)ncc3C2C)cc(F)c1-c1ccncc1` (stereo not shown) [Example 136, 2-[3-fluoro-5-methoxy-4-(4-pyridyl)phenyl]-1-methyl-6-pyrimidin-2-yl-3,4-dihydro-1H-2,7-naphthyridine], the half-maximal inhibitory concentration (IC50) turned out to be 357 nM. Take `CC1c2cnc(-c3ncccn3)nc2CCN1c1cc(F)c(F)c(OCCCCCN)c1` (stereo not shown) [Example 57, 5-[2,3-difluoro-5-(5-methyl-2-pyrimidin-2-yl-7,8-dihydro-5H-pyrido[4,3-d]pyrimidin-6-yl)phenoxy]pentan-1-amine]: the IC50 turned out to be 110 nM. Take `COC(=O)CCCCCCCOc1cc(F)nc(N2CCc3nc(-c4ncccn4)ncc3C2C)c1` (stereo not shown) [Example 167, methyl 8-[[2-fluoro-6-(5-methyl-2-pyrimidin-2-yl-7,8-dihydro-5H-pyrido[4,3-d]pyrimidin-6-yl)-4-pyridyl]oxy]octanoate]: the 50% inhibitory concentration (IC50) stood at 26 nM. Take `CC1c2cnc(-c3ncccn3)nc2CCN1c1cc(F)c(F)c(OCC2CC2)c1` (stereo not shown) [Example 88, 6-[3-(cyclopropylmethoxy)-4,5-difluoro-phenyl]-5-methyl-2-pyrimidin-2-yl-7,8-dihydro-5H-pyrido[4,3-d]pyrimidine]: the IC50 was 27 nM. As for `CC1c2cnc(-c3ccccn3)nc2CCN1c1cc(F)cc(N2CCNC(=O)C2)n1` (stereo not shown) [Example 223, 4-[4-fluoro-6-[5-methyl-2-(2-pyridyl)-7,8-dihydro-5H-pyrido[4,3-d]pyrimidin-6-yl]-2-pyridyl]piperazin-2-one], the IC50 is 15 nM.

Turning to `CC1c2cnc(-c3ncccn3)nc2CCN1c1cc(N)cc(F)n1` (stereo not shown) [Example 210, 2-fluoro-6-(5-methyl-2-pyrimidin-2-yl-7,8-dihydro-5H-pyrido[4,3-d]pyrimidin-6-yl)pyridin-4-amine], the IC50 worked out at 65 nM. `COc1cc(N2CCc3nc(-c4ncccn4)ncc3C2C)nc(F)c1Cl` (single isomer, unassigned; (-)) [Example 146, (−)-6-(5-chloro-6-fluoro-4-methoxy-2-pyridyl)-5-methyl-2-pyrimidin-2-yl-7,8-dihydro-5H-pyrido[4,3-d]pyrimidine]: the IC50 was determined as 2 nM. `CC1c2cnc(-c3ccccn3)nc2CCN1c1cc(OCCCOCC(N)=O)cc(F)n1` (stereo not shown) [Example 186]: the concentration for half-maximal inhibition (IC50) came to 18 nM.

With `CC1c2cnc(-c3ncccn3)nc2CCN1c1cc(N2CCOCC2)cc(F)n1` (stereo not shown) [Example 202, 4-[2-fluoro-6-(5-methyl-2-pyrimidin-2-yl-7,8-dihydro-5H-pyrido[4,3-d]pyrimidin-6-yl)-4-pyridyl]morpholine], the half-inhibitory concentration (IC50) turned out to be 13 nM. Take `COc1cc(N2CCc3nc(-c4ncccn4)ncc3C2C)cc(C(F)(F)F)c1` (stereo not shown) [Example 112, 6-[3-methoxy-5-(trifluoromethyl)phenyl]-5-methyl-2-pyrimidin-2-yl-7,8-dihydro-5H-pyrido[4,3-d]pyrimidine]: the concentration for half-maximal inhibition (IC50) amounted to 84 nM.

With `CC1c2cnc(-c3ncccn3)nc2CCN1c1cc(F)c(F)c(OCCCN2CCN(C)CC2)c1` (stereo not shown) [Example 101, 6-[3,4-difluoro-5-[3-(4-methylpiperazin-1-yl)propoxy]phenyl]-5-methyl-2-pyrimidin-2-yl-7,8-dihydro-5H-pyrido[4,3-d]pyrimidine], the IC50 was determined as 113 nM. Take `CC1c2cnc(-c3ncccn3)nc2CCN1c1cc(F)c(F)c(OCCC2CNC2)c1` (stereo not shown) [Example 116, 6-[3-[2-(azetidin-3-yl)ethoxy]-4,5-difluoro-phenyl]-5-methyl-2-pyrimidin-2-yl-7,8-dihydro-5H-pyrido[4,3-d]pyrimidine]: the IC50 was found to be 902 nM. For the compound `CC1c2cnc(-c3ncccn3)nc2CCN1c1cc(F)c(F)c(OCC(=O)O)c1` (stereo not shown) [Example 65, 2-[2,3-difluoro-5-(5-methyl-2-pyrimidin-2-yl-7,8-dihydro-5H-pyrido[4,3-d]pyrimidin-6-yl)phenoxy]acetic acid], the 50% inhibitory concentration (IC50) was found to be 16700 nM. Take `CC1c2cnc(-c3ncccn3)nc2CCN1c1cc(F)c(F)c(OCC2CS(=O)(=O)C2)c1` (stereo not shown) [Example 120, 3-[[2,3-difluoro-5-(5-methyl-2-pyrimidin-2-yl-7,8-dihydro-5H-pyrido[4,3-d]pyrimidin-6-yl)phenoxy]methyl]thietane 1,1-dioxide]: the concentration for half-maximal inhibition (IC50) amounted to 96 nM.

The experiment is the same for the next values; noted with them: Hepatitis B virus, HepG2.2.15, read-out: IC50 (HBsAg assay).
On to `COc1cc(N2CCc3nc(-c4ncccn4)ncc3C2C)cc(F)c1C#N` (stereo not shown) [Example 22, 2-fluoro-6-methoxy-4-(5-methyl-2-pyrimidin-2-yl-7,8-dihydro-5H-pyrido[4,3-d]pyrimidin-6-yl)benzonitrile], for which the IC50 is 27 nM.

For orientation: IC50 means the concentration that gives 50% inhibition.
